Legend:
Human Fibroblast BJ = experiment: MTT cytotoxicity assay against BJ human fibroblast cells; assay type: cell-based; details: 48 h, 1-30 µM, ± SD of three independent experiments
Procedure: (§1) Cytotoxicity against BJ human fibroblast cells and cytotoxicity against PC3, HeLa, MCF-7, and MDA-MB231 cancer cell lines were evaluated by following the procedure as described in the literature (Supplementary Materials). […]
(§2) The Biological Activity Assays Protocols
(§3) Cytotoxic activity of compounds was evaluated in 96-well flat-bottomed micro plates by using the standard MTT (3-[4, 5-dimethylthiazole-2-yl]-2, 5-diphenyl-tetrazolium bromide) colorimetric assay.
(§4) For this purpose, PC3 cells (Prostate Cancer) / BJ Human fibroblast cells / HeLa cells (Cervical Cancer) / MCF-7 and MDA-MB-231 breast cancer cell line were cultured in Dulbecco’s Modified Eagle Medium, supplemented with 5% of fetal bovine serum (FBS), 100 IU/ml of penicillin and 100 µg/ml of streptomycin in 75 cm2 flasks, and kept in 5% CO2 incubator at 37 °C. Exponentially growing cells were harvested, counted with haemocytometer and diluted with a particular medium. Cell culture with the concentration of 1x10^5 cells/ml was prepared and introduced (100 µL/well) into 96-well plates. After overnight incubation, medium was removed and 200 µL of fresh medium was added with different concentrations of compounds (1-30µM). After 48 hrs, 200 µL MTT (0.5 mg/ml) was added to each well and incubated further for 4 hrs. Subsequently, 100µL of DMSO was added to each well. The extent of MTT reduction to formazan within cells was calculated by measuring the absorbance at 570 nm, using a micro plate reader (Spectra Max plus, Molecular Devices, CA, USA). The cytotoxicity was recorded […]
(§5) (1 picture or pasted object on this page, not shown here) […]
(§6) as concentration causing 50% growth inhibition (IC50) for PC3 cells. The percent inhibition was calculated by using the following formula:
(§7) % inhibition = 100-((mean of O.D of test compound – mean of O.D of negative control)/ (mean of O.D of positive control – mean of O.D of negative control)*100).
(§8) The results (% inhibition) were processed by using Soft- Max Pro software (Molecular Device, USA).
(§9) Standard drug used in the MTT assay was doxorubicin. […]

Prostate PC3 = experiment: MTT anticancer assay, prostate PC3 cells; assay type: cell-based; details: 1-30 µM, ± SD of three independent experiments; for IC50: Homo sapiens, PC-3, 48 h
Procedure: (§10) The antiproliferative activity against four cancer cell lines, including prostate PC3, cervical HeLa, and triple-negative breast cancer (MCF-7 and MDA-MB231) was evaluated by MTT assay, while standard drug doxorubicin was used as a reference for comparison (Table 1).
as §1, §2, §3, §4, §5, §6, §7, §8, §9

Cervical HeLa = experiment: MTT anticancer assay, cervical HeLa cells; assay type: cell-based; details: 48 h, 1-30 µM, ± SD of three independent experiments; for IC50: Homo sapiens, HeLa
Procedure: as §10, §1, §2, §3, §4, §5, §6, §7, §8, §9

Breast MCF-7 = experiment: MTT anticancer assay, breast MCF-7 cells; assay type: cell-based; set-up: key to IC50, Breast MCF-7: NA means that the tested compound did not show anticancer activity at 30 µM; NS: Not soluble; details: 1-30 µM, ± SD of three independent experiments; for IC50: Homo sapiens, MCF7, 48 h
Procedure: as §10, §1, §2, §3, §4, §5, §6, §7, §8, §9

Breast MDA-MB231 = experiment: MTT anticancer assay, breast MDA-MB231 cells; assay type: cell-based; set-up: key to IC50, Breast MDA-MB231: NA means that the tested compound did not show anticancer activity at 30 µM; NS: Not soluble; details: 1-30 µM, ± SD of three independent experiments; for IC50: Homo sapiens, MDA-MB-231, 48 h; for IC50, Breast MDA-MB231: 48 h
Procedure: as §10, §1, §2, §3, §4, §5, §6, §7, §8, §9

| Compound | IC50 (Human Fibroblast BJ) [µM] | IC50 (Prostate PC3) [µM] | IC50, Cervical HeLa (Cervical HeLa) | IC50 (Cervical HeLa) [µM] | IC50 (Breast MCF-7) [µM] | IC50 (Breast MDA-MB231) [µM] | melting point [°C] | IC50, Breast MDA-MB231 (Breast MDA-MB231) | IC50, Prostate PC3 (Prostate PC3; 48 h) | IC50, Breast MCF-7 (Breast MCF-7; 48 h) |
| --- | --- | --- | --- | --- | --- | --- | --- | --- | --- | --- |
| Cc1ccc2c(c1)[C@]1(C(=O)N2)N2[C@H](C[C@@H]3CCCC[C@@H]32)[C@@H](c2ccc(C(F)(F)F)cc2)[C@@]12CCC/C(=C\c1ccc(C(F)(F)F)cc1)C2=O [Compound 4n, (1. S,1′S,3′S,4a′S,8a′S,9a′R)-5″-Methyl-3-((E)-4-(trifluoromethyl)benzylidene)-1′-(4-(trifluorom-thyl)phenyl)-4a′,5′,6′,7′,8′,8a′,9′,9a′-octahydro-1′H-dispiro[cyclohexane-1,2′-pyrrolo[1,2-a]indole-3′,3″-indoline]-2,2″-dione] | > 30 | > 30 | inactive | > 30 | > 30 | > 30 | 73 to 74 | – | – | – |
| O=C1/C(=C/c2ccc(Br)cc2)CCC[C@@]12[C@H](c1ccc(Br)cc1)[C@H]1C[C@@H]3CCCC[C@@H]3N1[C@]21C(=O)Nc2ccc([N+](=O)[O-])cc21 [Compound 4g, (1. S,1′S,3′S,4a′S,8a′S,9a′R)-3-((E)-4-bromobenzylidene)-1′-(4-bromophenyl)-5″-nitro-4a′,5′,6′,7′,8′,8a′,9′,9a′-octahydro-1′H-dispiro[cyclohexane-1,2′-pyrrolo[1,2-a]indole-3′,3″-indoline]-2,2″-dione] | 21.7 ± 0.2 | 14.3 ± 1 | – | > 30 | > 30 | – | 125 to 126 | NS | – | – |
| COc1ccc2c(c1)[C@]1(C(=O)N2)N2[C@H](C[C@@H]3CCCC[C@@H]32)[C@@H](c2cccc(F)c2)[C@@]12CCC/C(=C\c1cccc(F)c1)C2=O [Compound 4j, (1. S,1′S,3′S,4a′S,8a′S,9a′R)-3-((E)-3-Fluorobenzylidene)-1′-(3-fluorophenyl)-5″-methoxy-4a′,5′,6′,7′,8′,8a′,9′,9a′-octahydro-1′H-dispiro[cyclohexane-1,2′-pyrrolo[1,2-a]indole-3′,3″-indoline]-2,2″-dione] | > 30 | > 30 | – | 11.9 ± 0.04 | > 30 | 10.5 ± 0.71 | 92 to 93 | – | – | – |
| O=C1/C(=C/c2cccc(F)c2)CCC[C@@]12[C@H](c1cccc(F)c1)[C@H]1C[C@@H]3CCCC[C@@H]3N1[C@]21C(=O)Nc2ccc([N+](=O)[O-])cc21 [Compound 4i, (1. S,1′S,3′S,4a′S,8a′S,9a′R)-3-((E)-3-Fluorobenzylidene)-1′-(3-fluorophenyl)-5″-nitro-4a′,5′,6′,7′,8′,8a′,9′,9a′-octahydro-1′H-dispiro[cyclohexane-1,2′-pyrrolo[1,2-a]indole-3′,3″-indoline]-2,2″-dione] | > 30 | > 30 | – | > 30 | > 30 | 7.63 ± 0.08 | 107 to 108 | – | – | – |
| O=C1/C(=C/c2ccc(F)cc2)CCC[C@@]12[C@H](c1ccc(F)cc1)[C@H]1C[C@@H]3CCCC[C@@H]3N1[C@]21C(=O)Nc2cc(Cl)ccc21 [Compound 4l, (1. S,1′S,3′S,4a′S,8a′S,9a′R)-6″-Chloro-3-((E)-4-fluorobenzylidene)-1′-(4-fluorophenyl)-4a′,5′,6′,7′,8′,8a′,9′,9a′-octahydro-1′H-dispiro[cyclohexane-1,2′-pyrrolo[1,2-a]indole-3′,3″-indoline]-2,2″-dione] | > 30 | > 30 | – | 7.2 ± 0.5 | > 30 | 14.45 ± 0.08 | 96 to 97 | – | – | – |
| O=C1/C(=C/c2ccccc2)CCC[C@@]12[C@H](c1ccccc1)[C@H]1C[C@@H]3CCCC[C@@H]3N1[C@]21C(=O)Nc2ccc(F)cc21 [Compound 4c, (1. S,1′S,3′S,4a′S,8a′S,9a′R)-3-((E)-Benzylidene)-5″-fluoro-1′-phenyl-4a′,5′,6′,7′,8′,8a′,9′,9a′-octahydro-1′H-dispiro[cyclohexane-1,2′-pyrrolo[1,2-a]indole-3′,3″-indoline]-2,2″-dione] | > 30 | 17.9 ± 0.2 | – | > 30 | 27.8 ± 1.02 | 20.6 ± 2.16 | 70 to 71 | – | – | – |
| O=C1/C(=C/c2ccccc2)CCC[C@@]12[C@H](c1ccccc1)[C@H]1C[C@@H]3CCCC[C@@H]3N1[C@]21C(=O)Nc2ccc([N+](=O)[O-])cc21 [Compound 4d, (1. S,1′S,3′S,4a′S,8a′S,9a′R)-3-((E)-Benzylidene)-5″-nitro-1′-phenyl-4a′,5′,6′,7′,8′,8a′,9′,9a′-octahydro-1′H-dispiro[cyclohexane-1,2′-pyrrolo[1,2-a]indole-3′,3″-indoline]-2,2″-dione] | > 30 | 29.8 ± 0.1 | – | > 30 | > 30 | > 30 | 111 to 122 | – | – | – |
| O=C1/C(=C/c2cccc(F)c2)CCC[C@@]12[C@H](c1cccc(F)c1)[C@H]1C[C@@H]3CCCC[C@@H]3N1[C@]21C(=O)Nc2cc(Cl)ccc21 [Compound 4h, (1. S,1′S,3′S,4a′S,8a′S,9a′R)-6″-Chloro-3-((E)-3-fluorobenzylidene)-1′-(3-fluorophenyl)-4a′,5′,6′,7′,8′,8a′,9′,9a′-octahydro-1′H-dispiro[cyclohexane-1,2′-pyrrolo[1,2-a]indole-3′,3″-indoline]-2,2″-dione] | > 30 | > 30 | – | > 30 | > 30 | 14.43 ± 0.09 | 83 to 84 | – | – | – |
| O=C1/C(=C/c2cccc(Br)c2)CCC[C@@]12[C@H](c1cccc(Br)c1)[C@H]1C[C@@H]3CCCC[C@@H]3N1[C@]21C(=O)Nc2cc(Cl)ccc21 [Compound 4k, (1. S,1′S,3′S,4a′S,8a′S,9a′R)-3-((E)-3-Bromobenzylidene)-1′-(3-bromophenyl)-6″-chloro-4a′,5′,6′,7′,8′,8a′,9′,9a′-octahydro-1′H-dispiro[cyclohexane-1,2′-pyrrolo[1,2-a]indole-3′,3″-indoline]-2,2″-dione] | > 30 | > 30 | inactive | > 30 | > 30 | > 30 | 115 to 116 | – | – | – |
| O=C1/C(=C/c2ccccc2)CCC[C@@]12[C@H](c1ccccc1)[C@H]1C[C@@H]3CCCC[C@@H]3N1[C@]21C(=O)Nc2ccccc21 [Compound 4a, (1. S,1′S,3′S,4a′S,8a′S,9a′R)-3-((E)-Benzylidene)-1′-phenyl-4a′,5′,6′,7′,8′,8a′,9′,9a′-octahydro-1′H-dispiro[cyclohexane-1,2′-pyrrolo[1,2-a]indole-3′,3″-indoline]-2,2″-dione] | > 30 | 24.1 ± 1.1 | – | 7.1 ± 0.2 | 25 ± 0.57 | 19.5 ± 0.56 | 70 to 71 | – | – | – |
| O=C1/C(=C/c2ccc(Br)cc2)CCC[C@@]12[C@H](c1ccc(Br)cc1)[C@H]1C[C@@H]3CCCC[C@@H]3N1[C@]21C(=O)Nc2cc(Cl)ccc21 [Compound 4f, (1. S,1′S,3′S,4a′S,8a′S,9a′R)-3-((E)-4-Bromobenzylidene)-1′-(4-bromophenyl)-6″-chloro-4a′,5′,6′,7′,8′,8a′,9′,9a′-octahydro-1′H-dispiro[cyclohexane-1,2′-pyrrolo[1,2-a]indole-3′,3″-indoline]-2,2″-dione] | > 30 | > 30 | – | > 30 | – | – | 97 to 98 | NS | inactive | NS ^c |
| O=C1/C(=C/c2ccccc2)CCC[C@@]12[C@H](c1ccccc1)[C@H]1C[C@@H]3CCCC[C@@H]3N1[C@]21C(=O)Nc2cc(Cl)ccc21 [Compound 4b, (1. S,1′S,3′S,4a′S,8a′S,9a′R)-3-((E)-Benzylidene)-6″-chloro-1′-phenyl-4a′,5′,6′,7′,8′,8a′,9′,9a′-octahydro-1′H-dispiro[cyclohexane-1,2′-pyrrolo[1,2-a]indole-3′,3″-indoline]-2,2″-dione] | > 30 | 3.7 ± 1 | – | > 30 | 27.7 ± 0.59 | 24.08 ± 0.02 | – | – | – | – |
